According to PubChem BioAssay AID1963871 (Molecular Pharmacology Branch, DTP, NCI, 2024):

Test system: KRAS-mutant PDC multicell tumor spheroid viability
Assay: Anticancer human tumor 521955-158-R2-J5-PDC patient-derived pancreatic carcinoma cell line growth inhibition [KRAS2]
Conditions: for IC50: curve of first compound; for viability, T/C: stronger effect = lower value
Summary of the method: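 Combination screen of spheroid viability in tumor-cell co-cultures with endothelial (HUVEC) and mesenchymal stem cell stroma. Each agent was tested in half-log dilutions, topping at clinical Cmax or at 10 microM without a known Cmax.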

[1] = second compound 0.0316 µM, first compound 0.0316 µM
[2] = second compound 0.0316 µM, first compound 0.1 µM
[3] = second compound 0.1 µM, first compound 0.0316 µM
[4] = second compound 0.1 µM, first compound 0.1 µM
[5] = second compound 0.1 µM, first compound 0.316 µM
[6] = second compound 0.1 µM, first compound 1 µM
[7] = second compound 0.1 µM, first compound 3.16 µM
[8] = second compound 0.1 µM, first compound 10 µM
[9] = second compound 0.316 µM, first compound 0.0316 µM
[10] = second compound 0.316 µM, first compound 0.1 µM
[11] = second compound 0.316 µM, first compound 0.316 µM
[12] = second compound 0.316 µM, first compound 1 µM
[13] = second compound 0.316 µM, first compound 3.16 µM
[14] = second compound 0.316 µM, first compound 10 µM
[15] = second compound 1 µM, first compound 0.0316 µM
[16] = second compound 1 µM, first compound 0.1 µM
[17] = second compound 1 µM, first compound 0.316 µM
[18] = second compound 1 µM, first compound 1 µM
[19] = second compound 1 µM, first compound 3.16 µM
[20] = second compound 1 µM, first compound 10 µM
[21] = second compound 3.16 µM, first compound 0.0316 µM
[22] = second compound 3.16 µM, first compound 0.1 µM
[23] = second compound 3.16 µM, first compound 0.316 µM
[24] = second compound 3.16 µM, first compound 1 µM
[25] = second compound 3.16 µM, first compound 3.16 µM
[26] = second compound 3.16 µM, first compound 10 µM
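Also: viability read after seven days of drug exposure.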

SMILES: CCNC(=O)CC1N=C(c2ccc(Cl)cc2)c2cc(OC)ccc2-n2c(C)nnc21 (stereo not given) + C=CC(=O)N1CCN(c2nc(OCC3CCCN3C)nc3c2CCN(c2cccc4cccc(C)c24)C3)CC1CC#N
- IC50 (second compound 0.0316 µM): 395 nM
- IC50 (second compound 0.1 µM): 340 nM
- IC50 (second compound 0.316 µM): 302 nM
- IC50 (second compound 1 µM): 291 nM
- IC50 (second compound 3.16 µM): < 31.6 nM
- viability, T/C [1]: 106%
- viability, T/C [2]: 94.9%
- viability, T/C (second compound 0.0316 µM, first compound 0.316 µM): 52.9%
- viability, T/C (second compound 0.0316 µM, first compound 1 µM): 38%
- viability, T/C (second compound 0.0316 µM, first compound 3.16 µM): 32.4%
- viability, T/C (second compound 0.0316 µM, first compound 10 µM): 34.2%
- viability, T/C [3]: 96.3%
- viability, T/C [4]: 79.4%
- viability, T/C [5]: 50.7%
- viability, T/C [6]: 36%
- viability, T/C [7]: 34.3%
- viability, T/C [8]: 30.1%
- viability, T/C [9]: 103%
- viability, T/C [10]: 97.6%
- viability, T/C [11]: 47.8%
- viability, T/C [12]: 35.2%
- viability, T/C [13]: 31.6%
- viability, T/C [14]: 32.7%
- viability, T/C [15]: 84.3%
- viability, T/C [16]: 77%
- viability, T/C [17]: 48.1%
- viability, T/C [18]: 30.1%
- viability, T/C [19]: 28.1%
- viability, T/C [20]: 29.4%
- viability, T/C [21]: 29.8%
- viability, T/C [22]: 22%
- viability, T/C [23]: 22.2%
- viability, T/C [24]: 0.29%
- viability, T/C [25]: 14.3%
- viability, T/C [26]: 11.2%

SMILES: COc1cc(Nc2ncc3c(n2)-c2ccc(Cl)cc2C(c2c(F)cccc2OC)=NC3)ccc1C(=O)O + COc1cc2nc(C)nc(NC(C)c3cc(N)cc(C(F)(F)F)c3)c2cc1OC1CCOC1
- IC50 (second compound 0.1 µM): < 31.6 nM
- IC50 (second compound 0.316 µM): < 31.6 nM
- IC50 (second compound 1 µM): < 31.6 nM
- IC50 (second compound 3.16 µM): < 31.6 nM
- IC50 (second compound 10 µM): < 31.6 nM
- viability, T/C [3]: 40.5%
- viability, T/C [4]: 35.1%
- viability, T/C [5]: 41.5%
- viability, T/C [6]: 37.5%
- viability, T/C [7]: 37.2%
- viability, T/C [8]: 33.2%
- viability, T/C [9]: 45.3%
- viability, T/C [10]: 38.4%
- viability, T/C [11]: 40.7%
- viability, T/C [12]: 36.7%
- viability, T/C [13]: 37.3%
- viability, T/C [14]: 34.6%
- viability, T/C [15]: 46.9%
- viability, T/C [16]: 35.4%
- viability, T/C [17]: 39.4%
- viability, T/C [18]: 40.5%
- viability, T/C [19]: 33%
- viability, T/C [20]: 34.2%
- viability, T/C [21]: 38.5%
- viability, T/C [22]: 32%
- viability, T/C [23]: 32.5%
- viability, T/C [24]: 33.7%
- viability, T/C [25]: 30.1%
- viability, T/C [26]: 31.6%
- viability, T/C (second compound 10 µM, first compound 0.0316 µM): 11.7%
- viability, T/C (second compound 10 µM, first compound 0.1 µM): 2.43%
- viability, T/C (second compound 10 µM, first compound 0.316 µM): 2.29%
- viability, T/C (second compound 10 µM, first compound 1 µM): 2.71%
- viability, T/C (second compound 10 µM, first compound 3.16 µM): 10.7%
- viability, T/C (second compound 10 µM, first compound 10 µM): 2.59%

SMILES: Cn1ncnc1[C@H]1c2n[nH]c(=O)c3cc(F)cc(c23)N[C@@H]1c1ccc(F)cc1 + C=CC(=O)N1CCN(c2nc(OCC3CCCN3C)nc3c2CCN(c2cccc4cccc(C)c24)C3)CC1CC#N
- IC50 (second compound 0.0316 µM): > 100 nM
- IC50 (second compound 0.1 µM): > 100 nM
- IC50 (second compound 0.316 µM): > 100 nM
- IC50 (second compound 1 µM): > 100 nM
- IC50 (second compound 3.16 µM): < 0.316 nM
- viability, T/C (second compound 0.0316 µM, first compound 0.000316 µM): 111%
- viability, T/C (second compound 0.0316 µM, first compound 0.001 µM): 114%
- viability, T/C (second compound 0.0316 µM, first compound 0.00316 µM): 103%
- viability, T/C (second compound 0.0316 µM, first compound 0.01 µM): 81.4%
- viability, T/C [1]: 91.6%
- viability, T/C [2]: 82.5%
- viability, T/C (second compound 0.1 µM, first compound 0.000316 µM): 104%
- viability, T/C (second compound 0.1 µM, first compound 0.001 µM): 96.9%
- viability, T/C (second compound 0.1 µM, first compound 0.00316 µM): 86.9%
- viability, T/C (second compound 0.1 µM, first compound 0.01 µM): 85.5%
- viability, T/C [3]: 81.3%
- viability, T/C [4]: 77.6%
- viability, T/C (second compound 0.316 µM, first compound 0.000316 µM): 99.6%
- viability, T/C (second compound 0.316 µM, first compound 0.001 µM): 94.4%
- viability, T/C (second compound 0.316 µM, first compound 0.00316 µM): 93.9%
- viability, T/C (second compound 0.316 µM, first compound 0.01 µM): 72.3%
- viability, T/C [9]: 75%
- viability, T/C [10]: 66.5%
- viability, T/C (second compound 1 µM, first compound 0.000316 µM): 78.3%
- viability, T/C (second compound 1 µM, first compound 0.001 µM): 82.7%
- viability, T/C (second compound 1 µM, first compound 0.00316 µM): 78.5%
- viability, T/C (second compound 1 µM, first compound 0.01 µM): 69.2%
- viability, T/C [15]: 67.4%
- viability, T/C [16]: 62.7%
- viability, T/C (second compound 3.16 µM, first compound 0.000316 µM): 15.8%
- viability, T/C (second compound 3.16 µM, first compound 0.001 µM): 10.9%
- viability, T/C (second compound 3.16 µM, first compound 0.00316 µM): 10.7%
- viability, T/C (second compound 3.16 µM, first compound 0.01 µM): 8.52%
- viability, T/C [21]: 9.22%
- viability, T/C [22]: 8.81%
